Patent US9926529B2, “Derivation of neural stem cells and dopaminergic neurons from human pluripotent stem cells” (International Stem Cell Corporation, priority 2012, dated 2018)

How the values were obtained:
Format in all cases: cell-based, human
hPSC-derived DA neurons = experiment: Whole cell patch clamp electrophysiology of GS-treated neurons; conditions: current clamp, after 90 days of GS treatment
Experimental: Whole cell patch clamp electrophysiology methods. For electrophysiological recordings, the cells were transferred to a recording chamber mounted on an inverted Olympus microscope. During the recordings the temperature was maintained at 31-32° C., and the cells perfused at constant flow of 1 ml/min. with 150 mM NaCl, 4 mM KCl, 1.8 mM CaCl2, 1 mM MgCl2, 10 mM HEPES, 10 mM Glucose at pH 7.30 and 315 mOsm. Whole-cell recordings were obtained using borosilicate electrodes with tip resistance of 2-3 MΩ, filled with 130 mM K-Gluconate, 5 mM NaCl, 5 mM KCl, 10 mM HEPES, 20 mM Sucrose, 0.3 mM EGTA, 3 mM MgATP at pH 7.30 and 290 mOsm. Data were acquired using an HEKA EPC-10 digitizer/amplifier. Once whole-cell access was achieved the resting membrane potential was immediately recorded; the cells were then allowed to equilibrate for 3-5 min. From a resting membrane potential of −70 mV, the cells were then depolarized in current-clamp mode with 200 ms current injections, delivered at 0.2 Hz., and with increasing amplitude from 50 pA to up to 1000 pA to induce action potentials. The presence of inward or outward currents was determined by applying a voltage ramp. Cells with unstable recording configuration or for which the series resistance became larger than 15MΩ were excluded from the study. Twenty different cells were recorded and action potentials were obtained from 7 patch-clamped cells.

hPSC-NSCs = experiment: Percentage of TH positive cells produced by chemical treatment; conditions: chemical treatment 2.5 μM for two weeks
Experimental: The method specifically involved treating both hESC-H9-NSCs (Invitrogen) and hPSC-NSCs with Purmorphamine (2 μM) and FGF8 (100 ng/mL) in NB medium [NeuroBasal medium, 1× GlutaMAX, 1× N2/B27 Supplement (Invitrogen)] for 7 days. After 7 days of Purmorphamine and FGF8 treatment, the NSCs were dissociated with Accutase (Sigma) and plated 20,000 cells/mL into Matrigel coated 96 well plates and treated with small molecule library (Torcris 1120 Biologically Active Compounds) at 2.5 μM final concentration for two weeks (FIG. 6A). Two weeks after treatment with small molecules, all wells were visually observed and scored based on neurite density and dopamine release. For measuring neurite density, cells were fixed with 4% paraformaldehyde and phase contrast images were acquired using Cellavista Cell Imaging System (Roche Applied Science) from randomly selected fields. Neurite density was measured using the Cellavista density software image processing program. Each experimental condition was done in duplicate wells, and at least three independent experiments were conducted to acquire the final results.
Conditioned medium from the top neurite inducers (Table 1) (wells containing the highest density of neurites compare to control 0.1% DMSO treated) were collected and analyzed using a dopamine ELISA assay (Cosmo Bio). Conditioned medium was collected from samples containing 50,000 cells per well and centrifuged at 3000 RPM to remove cell debris. Supernatant was then collected and analyzed for quantitative determination of dopamine using a commercial dopamine ELISA assay kit (CusaCosmo Bio). Data analysis was performed using the microtiter plate reader (BIO-TEK Synergy 2). The results presented are from three independent experiments (n=3) and represented as mean±standard error of mean (s.e.m.) and statistical analysis was performed using the two-tailed Student's t-test with a confidence level of 95% (α=0.05) with statistical significance of P<0.05. Additionally, total RNA from each well were collected and analyze by RT-PCR for expression of TuJ1, MAP2, TH, GRK2, EN1, DAT, AADC, PAX2, NURR1, PITX3 and LMX1B from hPSC-NSCs (Table 2). […] Analysis of the ELISA data indicated the top small molecule neurite inducers produced higher levels of dopamine than control non-treated cells (1.5 ng/mL). […] The percentages of TH positive cells produced by chemical treatment with Kenpaullone (33%), Guggulsterone (35%), Kynurenic Acid (19%), Immedthridine Dihydrobromide (21%), and Dimaprit Dihydrochloride (18%) were higher than 15% of TH positive cells obtained from hPSC-NSCs differentiated for ≥1 month using a standard dopaminergic differentiation medium (BDNF 20 ng/mL, GDNF 20 ng/mL, cAMP 200 μM, Abscorbic Acid 200 μM, TGFβ3 2 ng/mL and DAPT).

[1] = tested on: hPSC-NSC derived DA neurons; experiment: FACS analysis of derived DA neurons stained for TH; conditions: after 30 days of differentiation with guggulsterone
Experimental: To obtain DA neurons, hPSC-NSC were first primed into DA precursors with 100 ng/mL FGF8 and 2 μM Purmorphamine for 7 days and then used to screen for small molecules that induce terminal dopaminergic differentiation (FIG. 6A). The DA precursors were plated at 2000 cells/well of a 96-well plate and treated with a small molecule library (Tocris 1120 biologically active compounds) at 2.5 μM for two weeks (FIG. 6A). Dopaminergic differentiation was assessed by neurite outgrowth and ELISA analysis for dopamine release (FIG. 6A). From this screen, guggulsterone (GS), a naturally occurring steroid, was identified among the best inducers of dopaminergic differentiation (FIG. 6A). After 30 days of differentiation, GS-treated neurons appeared mature with elaborate neurite extensions. […] Spontaneous action potentials were recorded in whole cultures of GS-treated neurons using a microelectrode array (MEA) system (FIG. 6J). […]
For flow cytometry analysis, 1 million cells per sample were harvested with Accutase, washed with PBS, and fixed with 4% paraformaldehyde for 30 min at room temperature. […] The samples were run on a Becton Dickinison FACSCalibur™ 4-color flow cytometer and the data was analyzed with CellQuest Pro™ software (v6.0). […]

C/C=C1\C(=O)C[C@H]2[C@@H]3CCC4=CC(=O)CC[C@]4(C)[C@H]3CC[C@]12C [Guggulsterone]
patch-clamped cells in which action potentials were found (hPSC-derived DA neurons): 7 out of 20 | percentage of TH positive cells (hPSC-NSCs): 35% | cells gated TH positive (FACS) [1]: more than 97%
